# Data published in patent publication US20110039721A1, “METHOD FOR PREDICTION ABOUT CARCINOGENICITY OF SUBSTANCE IN RODENT” (Chemicals Evaluation and Research Institute, priority 2007, published 2011).
# Columns and labels:
# rodent = settings: classification of the substance (C+/C−); cited from earlier work
# [1] = classification of the substance (M+/M−); cited from earlier work
# liver = settings: classification of the substance (Cr+/Cr−); cited from earlier work
# [2] = test system: mRNA expressed from the genes (A) to (D) in rat liver; assay: Behavior of genes (mRNA expression level, oligo-DNA microarray) in rat liver after 28-day oral administration; assay type: in vivo; settings: mRNA vs vehicle control group
# Outline: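 Oral gavage, once daily × 28 days; male F344 SPF rats, 5 wk, n=4/group; vehicle controls given equal solvent volume. Liver excised day 28, total RNA purified. Significance: ≥1.5× or ≤1/1.5 of vehicle, direction concordant with other carcinogens.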
# [3] = gene group (A), Unigene No. Rn.167075
# [4] = gene group (C), Unigene No. Rn.120914
structure (smiles),measurement,setting,value
"CCN(N=O)C(N)=O [TS050, N-Ethyl-N-nitrosourea]",Carcinogenicity,rodent,C+
same,Mutagenicity by Ames test,[1],M+
same,Liver carcinogenicity,liver,Cr−
same,"Behavior of gene caused by administration of chemical substance, Gene No. 4846","[2]; gene group (A), Unigene No. Rn.144554",−
same,"Behavior of gene caused by administration of chemical substance, Gene No. 2026",[2]; [3],−
same,"Behavior of gene caused by administration of chemical substance, Gene No. 4218",[2]; [3],−
same,"Behavior of gene caused by administration of chemical substance, Gene No. 6182","[2]; gene group (A), Unigene No. Rn.5834",+
same,"Behavior of gene caused by administration of chemical substance, Gene No. 5600","[2]; gene group (A), Unigene No. Rn.9836",−
same,"Behavior of gene caused by administration of chemical substance, Gene No. 1494","[2]; gene group (B), Unigene No. Rn.1430",−
same,"Behavior of gene caused by administration of chemical substance, Gene No. 2045","[2]; gene group (B), Unigene No. Rn.19329",−
same,"Behavior of gene caused by administration of chemical substance, Gene No. 2203","[2]; gene group (B), Unigene No. Rn.21240",−
same,"Behavior of gene caused by administration of chemical substance, Gene No. 533","[2]; gene group (C), Unigene No. Rn.106184",−
same,"Behavior of gene caused by administration of chemical substance, Gene No. 725","[2]; gene group (C), Unigene No. Rn.108075",−
same,"Behavior of gene caused by administration of chemical substance, Gene No. 1163","[2]; gene group (C), Unigene No. Rn.11766",−
same,"Behavior of gene caused by administration of chemical substance, Gene No. 4973","[2]; gene group (C), Unigene No. Rn.118529",−
same,"Behavior of gene caused by administration of chemical substance, Gene No. 4095","[2]; gene group (C), Unigene No. Rn.119024",−
same,"Behavior of gene caused by administration of chemical substance, Gene No. 1334",[2]; [4],−
same,"Behavior of gene caused by administration of chemical substance, Gene No. 6620",[2]; [4],−
same,"Behavior of gene caused by administration of chemical substance, Gene No. 6303","[2]; gene group (C), Unigene No. Rn.123063",+
same,"Behavior of gene caused by administration of chemical substance, Gene No. 5878","[2]; gene group (C), Unigene No. Rn.143213",−
same,"Behavior of gene caused by administration of chemical substance, Gene No. 1131","[2]; gene group (C), Unigene No. Rn.144946",−
same,"Behavior of gene caused by administration of chemical substance, Gene No. 1562","[2]; gene group (C), Unigene No. Rn.14744",−
same,"Behavior of gene caused by administration of chemical substance, Gene No. 1741","[2]; gene group (C), Unigene No. Rn.1647",−
same,"Behavior of gene caused by administration of chemical substance, Gene No. 893","[2]; gene group (C), Unigene No. Rn.164817",−
same,"Behavior of gene caused by administration of chemical substance, Gene No. 6026","[2]; gene group (C), Unigene No. Rn.167685",−
same,"Behavior of gene caused by administration of chemical substance, Gene No. 154","[2]; gene group (C), Unigene No. Rn.185941",−
same,"Behavior of gene caused by administration of chemical substance, Gene No. 1993","[2]; gene group (C), Unigene No. Rn.18728",−
same,"Behavior of gene caused by administration of chemical substance, Gene No. 813","[2]; gene group (C), Unigene No. Rn.201760",−
same,"Behavior of gene caused by administration of chemical substance, Gene No. 2494","[2]; gene group (C), Unigene No. Rn.23969",−
same,"Behavior of gene caused by administration of chemical substance, Gene No. 2546","[2]; gene group (C), Unigene No. Rn.24561",−
same,"Behavior of gene caused by administration of chemical substance, Gene No. 3776","[2]; gene group (C), Unigene No. Rn.43232",−
same,"Behavior of gene caused by administration of chemical substance, Gene No. 3929","[2]; gene group (C), Unigene No. Rn.4620",−
same,"Behavior of gene caused by administration of chemical substance, Gene No. 1119","[2]; gene group (C), Unigene No. Rn.9757",−
same,"Behavior of gene caused by administration of chemical substance, Gene No. 6742","[2]; gene group (C), Unigene No. Rn.9779",−
same,"Behavior of gene caused by administration of chemical substance, Gene No. 5634","[2]; gene group (C), Unigene No. Rn.9862",−
same,"Behavior of gene caused by administration of chemical substance, Gene No. 5726","[2]; gene group (D), Unigene No. Rn.9939",+
